Data published in patent US5424196A, “Enzymatic process for preparing 7-aminocephalosporanic acid and derivatives” (Antibioticos S.p.A., priority 1990, dated 1995).

Columns and labels:
[1] = molecular target: T1, D-amino acid oxidase (DAO; EC-1.4.3.3) from Rhodotorula gracilis ATCC 26217 (Rhodotorula toruloides, UniProt P80324); assay: Substrate specificity (Km) of D-amino acid oxidase; assay type: biochemical; settings: compared with D-alanine, the specific substrate for this enzyme
T1 construct: production of Rhodotorula gracilis cells of high DAO enzyme content; made in house; host or cells: Rhodotorula gracilis ATCC 26217 (natural producer, aerobic fermentation)
T1 sequence (P80324 25-368): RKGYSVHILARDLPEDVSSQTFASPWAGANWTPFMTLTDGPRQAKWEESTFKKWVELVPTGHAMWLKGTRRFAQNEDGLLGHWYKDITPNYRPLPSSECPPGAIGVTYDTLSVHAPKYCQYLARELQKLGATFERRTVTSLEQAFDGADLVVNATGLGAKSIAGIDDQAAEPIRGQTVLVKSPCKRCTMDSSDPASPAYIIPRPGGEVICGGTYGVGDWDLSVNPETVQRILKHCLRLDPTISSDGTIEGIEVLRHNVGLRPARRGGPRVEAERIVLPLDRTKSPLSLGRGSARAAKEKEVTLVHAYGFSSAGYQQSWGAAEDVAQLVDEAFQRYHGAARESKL
Procedure: The activity of the D-amino acid oxidase enzyme is evaluated by measuring the H2 O2 quantity evolved on reacting the enzyme on a substrate of D-alanine in 100 mM phosphate buffer at pH 7.5 saturated with oxygen at 37° C.
The H2 O2 is determined kinetically using a peroxidase-based reactant, 4-aminophenazone and 2,4-dichlorophenolsulphonate by the modified Trinder reaction (J. Clin. Path. 22, 246, 1969). The red colour which forms (quinonimine) is proportional to the hydrogen peroxide evolved in the test and is measured spectrophotometrically at 510 nm.
One unit of D-amino acid oxidase is that quantity of enzyme (free or immobilized) which under the conditions used in the method produces one μmole of H2 O2 per minute.

[2] = molecular target: T1, D-amino acid oxidase (DAO; EC-1.4.3.3) from Rhodotorula gracilis ATCC 26217; assay: Dissociation constant of the FAD cofactor from D-amino acid oxidase; assay type: binding; settings: read-out: dissociation constant (bond with the FAD)

| SMILES | Km [1] | Kd [2] [nM] |
| --- | --- | --- |
| CC(=O)OCC1=C(C(=O)O)N2C(=O)[C@@H](NC(=O)CCC[C@@H](N)C(=O)O)[C@H]2SC1 [Cephalosporin C] | very similar to those encountered for D-alanine |  |
| Cc1cc2nc3c(=O)[nH]c(=O)nc-3n(C[C@H](O)[C@H](O)[C@H](O)COP(=O)(O)OP(=O)(O)OC[C@H]3O[C@@H](n4cnc5c(N)ncnc54)[C@H](O)[C@@H]3O)c2cc1C [FAD] |  | 22 |
